Source: US20080312287A1, “Compound and Methods For the Treatment of Cancer and Malaria” (University of Washington, priority 2005, published 2008)
Where two headings read alike, the source gives them in different places.

Legend:
P. falciparum 3D7 = assay: P. falciparum ED50 determination, [3H]-hypoxanthine incorporation, strain 3D7; type: cell-based, Plasmodium falciparum
From the text: (§1) Plasmodium strains. The P. falciparum strains used in this study were 3D7 (Netherlands, sensitive) provided by Dr. Pradipsinh Rathod from the University of Washington and K1 (Thailand, ChQ-R, Pyr-R) obtained from the MR4Unit of the American Type Culture Collection (ATCC, Manassas, Va.).
(§2) P. falciparum culture. Strains of P. falciparum were sustained in vitro based on experimental techniques as described by Trager and Jensen.^26 Cultures were maintained in RPMI-1640 (Sigma, St. Louis, […].) with 2 mM L-glutamine, 25 mM HEPES, 33 mM NaHCO3, 20 μg/ml gentamicin sulfate and 20% (v/v) heat-inactivated human plasma type A+ (R^P-20P). Type A+ erythrocytes were obtained from lab donors, washed three times with RPMI, re-suspended in 50% RPMI, and stored at 4° C. Parasites were grown in 10 mL of a 2% hematocrit/RP-20P (v/v) in 50-mL flasks under a 5% CO2, 5% O2, and 90% N2 atmosphere.
(§3) P. falciparum ED50 determination. One […]L of PFTI dissolved in DMSO was added to each well of a 96-well plate followed by the addition of 200 μL of P. falciparum culture at parasitemia and hematocrit of 0.5%. Plates were flushed with 5% CO2, 5% O2, and 90% N2 then incubated at 37° C. for 48 hr. [8-^3H]-hypoxanthine (0.3 μCi, 20 Ci/mmol, American Radiolabeled Chemicals) in 30 μL RP-20P was added to cultures and incubated for an additional 24 hours. Cells were harvested onto filter mats by a Multiharvester (Skatron, Sunnyvale, Calif.) and the radioactivity incorporated into the parasites was counted on a β-scintillation counter. The background level detected with uninfected erythrocytes was subtracted from the data. The ^3H-incorporation into infected RBCs with 1 μL DMSO vehicle alone represents 100% malaria growth. ED50 values were determined by linear regression analysis of the plots of ^3H-hypoxanthine incorporation versus concentration of compound.

Rat FTase = Rat FTase (Rattus norvegicus, UniProt Q02293+Q04631); assay: Rat farnesyltransferase IC50 determination; type: biochemical; details: concentration decreasing transferase activity twofold
P. falciparum K1 = assay: P. falciparum ED50 determination, [3H]-hypoxanthine incorporation, strain K1; type: cell-based, Plasmodium falciparum
From the text: as §1, §2, §3

PfPFT = biological target: T1, PfPFT (Plasmodium falciparum, UniProt Q8I503+Q8IHP6); assay: PfPFT inhibition, scintillation proximity assay with partially purified PfPFT; type: biochemical; details: for inhibition at 0.005 µM: read-out: % Inhibition of PfPFT at 5 nM, inhibitor at 5 nM; for inhibition at 0.05 µM: read-out: % Inhibition of PfPFT at 50 nM, inhibitor at 50 nM
T1 sequence (Q8I503 1-521): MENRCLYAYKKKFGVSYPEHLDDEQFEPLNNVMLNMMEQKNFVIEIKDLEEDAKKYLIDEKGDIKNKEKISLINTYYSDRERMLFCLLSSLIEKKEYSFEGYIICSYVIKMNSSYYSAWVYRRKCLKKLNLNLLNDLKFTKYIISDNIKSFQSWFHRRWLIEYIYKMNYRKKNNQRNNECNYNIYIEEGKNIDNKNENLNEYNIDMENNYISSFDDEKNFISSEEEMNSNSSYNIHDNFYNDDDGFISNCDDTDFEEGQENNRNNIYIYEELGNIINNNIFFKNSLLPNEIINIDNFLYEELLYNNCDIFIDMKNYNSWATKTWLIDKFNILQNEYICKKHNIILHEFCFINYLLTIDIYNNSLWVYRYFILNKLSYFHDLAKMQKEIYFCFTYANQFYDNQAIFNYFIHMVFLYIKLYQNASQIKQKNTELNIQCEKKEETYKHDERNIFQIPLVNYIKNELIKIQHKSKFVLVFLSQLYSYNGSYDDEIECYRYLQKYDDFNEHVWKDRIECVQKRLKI
T1 sequence (Q8IHP6 1-923): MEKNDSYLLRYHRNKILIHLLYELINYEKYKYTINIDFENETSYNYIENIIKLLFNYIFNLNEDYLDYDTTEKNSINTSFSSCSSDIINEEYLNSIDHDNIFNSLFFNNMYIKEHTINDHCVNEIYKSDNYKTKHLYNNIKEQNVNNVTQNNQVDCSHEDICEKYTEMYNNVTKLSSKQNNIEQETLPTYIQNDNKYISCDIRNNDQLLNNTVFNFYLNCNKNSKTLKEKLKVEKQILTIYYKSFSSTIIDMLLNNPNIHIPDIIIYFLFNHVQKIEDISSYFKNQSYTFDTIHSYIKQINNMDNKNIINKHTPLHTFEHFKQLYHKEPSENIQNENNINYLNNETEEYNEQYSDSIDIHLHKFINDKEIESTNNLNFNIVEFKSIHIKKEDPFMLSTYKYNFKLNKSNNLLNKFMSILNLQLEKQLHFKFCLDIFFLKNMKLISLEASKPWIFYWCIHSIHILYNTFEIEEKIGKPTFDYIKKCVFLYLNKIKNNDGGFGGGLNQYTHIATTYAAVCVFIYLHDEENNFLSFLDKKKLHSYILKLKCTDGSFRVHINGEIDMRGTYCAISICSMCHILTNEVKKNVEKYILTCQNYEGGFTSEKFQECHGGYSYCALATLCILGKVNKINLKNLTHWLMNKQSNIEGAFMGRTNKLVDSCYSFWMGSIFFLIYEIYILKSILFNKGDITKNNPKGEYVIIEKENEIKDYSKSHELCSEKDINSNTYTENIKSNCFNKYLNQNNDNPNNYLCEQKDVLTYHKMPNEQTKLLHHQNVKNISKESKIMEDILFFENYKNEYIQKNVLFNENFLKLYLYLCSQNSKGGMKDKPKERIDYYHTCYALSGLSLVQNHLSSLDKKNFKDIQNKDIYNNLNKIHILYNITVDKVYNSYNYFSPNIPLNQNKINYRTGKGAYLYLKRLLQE

[1] = Plasmodium falciparum, 3D7, strain 3D7, concentration decreasing hypoxanthine incorporation into parasites twofold, read-out: ED50 3D7
[2] = Plasmodium falciparum, K1, strain K1, concentration decreasing hypoxanthine incorporation into parasites twofold, read-out: ED50 K1

Compound | EC50 (P. falciparum 3D7; [1]) | EC50 (P. falciparum K1; [2]) | inhibition at 0.005 µM (PfPFT) | inhibition at 0.05 µM (PfPFT) | also measured
Cn1cnc(S(=O)(=O)N(CCN(Cc2cncn2C)c2ccc(C#N)cc2)Cc2ccccn2)c1 [Compound 8aa, 1-Methyl-1H-imidazole-4-sulfonic acid {2-[(4-cyano-phenyl)-(3-methyl-3H-imidazol-4-ylmethyl)-amino]-ethyl}-pyridin-2-ylmethyl-amide amide] | 0.75 µM | 1 µM | 64% | 93% | IC50 (Rat FTase): 0.043 µM
Cn1cnc(S(=O)(=O)N(CCN(Cc2cncn2C)c2ccc(C#N)cc2)Cc2ccc(C#N)cc2)c1 [Compound 8ae, 1-Methyl-1H-imidazole-4-sulfonic acid (4-cyano-benzyl)-{2-[(4-cyano-phenyl)-(3-methyl-3H-imidazol-4-ylmethyl)-amino]-ethyl}-amide] | 1.6 µM | 4.1 µM | 24% | 48% | IC50 (Rat FTase): 0.35 µM; Selectivity (PfPFT; ratio of rat to Plasmodium PFT activity): 3.7
C=C(C)CN(CCN(Cc1cncn1C)c1ccc(C#N)cc1)S(=O)(=O)c1cn(C)cn1 [Compound 8m, 1-Methyl-1H-imidazole-4-sulfonic acid {2-[(4-cyano-phenyl)-(3-methyl-3H-imidazol-4-ylmethyl)-amino]-ethyl}-(2-methyl-allyl)-amide] | > 5 µM | > 5 µM | 6% | 77% | –
C=C(Br)CN(CCN(Cc1cncn1C)c1ccc(C#N)cc1)S(=O)(=O)c1cn(C)cn1 [Compound 8n, 1-Methyl-1H-imidazole-4-sulfonic acid (2-bromo-allyl)-{2-[(4-cyano-phenyl)-(3-methyl-3H-imidazol-4-ylmethyl)-amino]-ethyl}-amide] | > 5 µM | > 5 µM | 25% | 80% | –
Cn1cnc(S(=O)(=O)N(CCN(Cc2cncn2C)c2ccc(C#N)cc2)CCn2cccc2)c1 [Compound 8p, 1-Methyl-1H-imidazole-4-sulfonic acid {2-[(4-cyano-phenyl)-(3-methyl-3H-imidazol-4-ylmethyl)-amino]-ethyl}-(2-pyrrol-1-yl-ethyl)-amide] | > 5 µM | > 5 µM | 11% | 56% | –
Cn1cnc(S(=O)(=O)N(CCN(Cc2cncn2C)c2ccc(C#N)cc2)CC2CCOCC2)c1 [Compound 8r, 1-Methyl-1H-imidazole-4-sulfonic acid {2-[(4-cyano-phenyl)-(3-methyl-3H-imidazol-4-ylmethyl)-amino]-ethyl}-(tetrahydro-pyran-4-ylmethyl)-amide] | 0.575 µM | 0.4 µM | 28% | 84% | –
Cn1cnc(S(=O)(=O)N(CCN(Cc2cncn2C)c2ccc(C#N)cc2)CC2CCNCC2)c1 [Compound 8s, 1-Methyl-1H-imidazole-4-sulfonic acid {2-[(4-cyano-phenyl)-(3-methyl-3H-imidazol-4-ylmethyl)-amino]-ethyl}-piperidin-4-ylmethyl-amide] | > 5 µM | > 5 µM | 5% | 5% | activity in words (PfPFT; SAR discussion of Table 4): inactive
CC(=O)N1CCC(CN(CCN(Cc2cncn2C)c2ccc(C#N)cc2)S(=O)(=O)c2cn(C)cn2)CC1 [Compound 8t, 1-Methyl-1H-imidazole-4-sulfonic acid (1-acetyl-piperidin-4-ylmethyl)-{2-[(4-cyano-phenyl)-(3-methyl-3H-imidazol-4-ylmethyl)-amino]-ethyl}-amide] | 5 µM | 3.5 µM | 8% | 44% | –
CC(C)C(=O)N1CCC(CN(CCN(Cc2cncn2C)c2ccc(C#N)cc2)S(=O)(=O)c2cn(C)cn2)CC1 [Compound 8u, 1-Methyl-1H-imidazole-4-sulfonic acid {2-[(4-cyano-phenyl)-(3-methyl-3H-imidazol-4-ylmethyl)-amino]-ethyl}-(1-isobutyryl-piperidin-4-ylmethyl)-amide] | 0.23 µM | 0.18 µM | 57% | 92% | –
Cn1cnc(S(=O)(=O)N(CCN(Cc2cncn2C)c2ccc(C#N)cc2)CC2CCN(c3ncccn3)CC2)c1 [Compound 8w, 1-Methyl-1H-imidazole-4-sulfonic acid {2-[(4-cyano-phenyl)-(3-methyl-3H-imidazol-4-ylmethyl)-amino]-ethyl}-(1-pyrimidin-2-yl-piperidin-4-ylmethyl)-amide] | 0.13 µM | 0.085 µM | 74% | 96% | IC50 (PfPFT; concentration decreasing transferase activity twofold): 0.0015 µM
Cc1cccc(CN(CCN(Cc2cncn2C)c2ccc(C#N)cc2)S(=O)(=O)c2cn(C)cn2)c1 [Compound 8y, 1-Methyl-1H-imidazole-4-sulfonic acid {2-[(4-cyano-phenyl)-(3-methyl-3H-imidazol-4-ylmethyl)-amino]-ethyl}-(3-methyl-benzyl)-amidem-toluene] | – | – | – | – | EC50 (P. falciparum 3D7; strain 3D7, concentration decreasing hypoxanthine incorporation into parasites twofold, read-out: ED50 3D7): 0.3 µM; EC50 (P. falciparum K1; strain K1, concentration decreasing hypoxanthine incorporation into parasites twofold, read-out: ED50 K1): 1 µM; % Inhibition of PfPFT at 5 nM (PfPFT; inhibitor at 5 nM): 61%; % Inhibition of PfPFT at 50 nM (PfPFT; inhibitor at 50 nM): 94%
Cc1ccc(CN(CCN(Cc2cncn2C)c2ccc(C#N)cc2)S(=O)(=O)c2cn(C)cn2)cc1 [Compound 8z, 1-Methyl-1H-imidazole-4-sulfonic acid {2-[(4-cyano-phenyl)-(3-methyl-3H-imidazol-4-ylmethyl)-amino]-ethyl}-(4-methyl-benzyl)-amide] | – | – | 45% | 54% | EC50 (P. falciparum 3D7; Plasmodium falciparum, 3D7, read-out: ED50 3D7): 2.7 µM; EC50 (P. falciparum K1; Plasmodium falciparum, K1, read-out: ED50 K1): > 5 µM
Cn1cnc(S(=O)(=O)N(CCN(Cc2cncn2C)c2ccc(Br)cc2)Cc2ccccn2)c1 [Compound 13, 1-Methyl-1H-imidazole-4-sulfonic acid {2-[(4-bromo-phenyl)-(3-methyl-3H-imidazol-4-ylmethyl)-amino]-ethyl}-pyridin-2-ylmethyl-amide] | – | – | – | – | IC50 (Rat FTase): 0.083 µM
